{"source": "patent US6936585B2", "about": "“Corticotropin releasing factor 2 receptor agonists” (priority 2002, dated 2005)", "key": {"[1]": {"target": "T1, CRF2R (Homo sapiens, UniProt Q13324)", "T1 sequence (Q13324 1-411)": "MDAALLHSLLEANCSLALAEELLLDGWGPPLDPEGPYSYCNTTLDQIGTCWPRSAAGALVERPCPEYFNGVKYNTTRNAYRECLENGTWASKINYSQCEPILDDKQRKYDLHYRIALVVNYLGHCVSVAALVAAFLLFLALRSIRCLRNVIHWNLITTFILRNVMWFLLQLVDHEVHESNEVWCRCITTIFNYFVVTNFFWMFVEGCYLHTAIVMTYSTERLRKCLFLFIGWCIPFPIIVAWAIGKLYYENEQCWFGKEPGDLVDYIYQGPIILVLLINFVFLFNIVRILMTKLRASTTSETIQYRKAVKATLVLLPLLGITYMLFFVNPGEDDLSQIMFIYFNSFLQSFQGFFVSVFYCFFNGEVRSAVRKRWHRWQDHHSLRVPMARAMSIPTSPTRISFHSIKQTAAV", "assay": "CRF2R agonist activation (EC50 / Emax), called comparative CRF binding", "format": "cell-based", "conditions": "for Emax: read-out: CRF2R Emax", "how_it_was_run": "(§1)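 Read-out is Gαs-driven cAMP induction, quantified directly in lysates or through CRE-reporter gene expression, after treating CRF1R- or CRF2R-expressing cells with peptide. Vehicle-treated cells serve as the comparison.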"}, "[2]": {"target": "T2, CRF1R (Homo sapiens, UniProt P34998)", "T2 sequence (P34998 24-415)": "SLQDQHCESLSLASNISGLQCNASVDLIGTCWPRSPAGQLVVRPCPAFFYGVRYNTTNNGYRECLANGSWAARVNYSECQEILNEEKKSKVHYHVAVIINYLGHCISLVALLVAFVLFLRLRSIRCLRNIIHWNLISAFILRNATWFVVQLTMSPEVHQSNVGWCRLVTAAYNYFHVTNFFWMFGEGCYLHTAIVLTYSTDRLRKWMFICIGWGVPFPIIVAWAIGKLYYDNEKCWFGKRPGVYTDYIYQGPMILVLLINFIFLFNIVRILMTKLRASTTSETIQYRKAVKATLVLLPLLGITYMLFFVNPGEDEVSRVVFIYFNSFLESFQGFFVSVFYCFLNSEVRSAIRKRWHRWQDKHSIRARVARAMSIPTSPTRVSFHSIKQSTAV", "assay": "CRF1R agonist activation (EC50 / Emax), called comparative CRF binding", "format": "cell-based", "conditions": "for Emax: read-out: CRF1R Emax", "how_it_was_run": "as §1"}}, "note": "Read-outs that look alike come from different tables or passages of the source. Peptide text beside a SMILES is read from it."}
{"smiles": "CC[C@H](C)[C@H](N)C(=O)N[C@H](C(=O)N[C@@H](CC(C)C)C(=O)N[C@@H](CO)C(=O)N[C@@H](CC(C)C)C(=O)N[C@@H](CC(=O)O)C(=O)N[C@H](C(=O)N1CCC[C@H]1C(=O)N[C@H](C(=O)NCC(=O)N[C@@H](CC(C)C)C(=O)N[C@@H](CC(C)C)C(=O)N[C@@H](CCC(N)=O)C(=O)N[C@H](C(=O)N[C@@H](CC(C)C)C(=O)N[C@@H](CC(C)C)C(=O)N[C@@H](CCC(=O)O)C(=O)N[C@@H](CCC(N)=O)C(=O)N[C@@H](C)C(=O)N[C@@H](CCCNC(=N)N)C(=O)N[C@@H](C)C(=O)N[C@@H](CCC(=O)O)C(=O)N[C@@H](C)C(=O)N[C@@H](C)C(=O)N[C@@H](CCCNC(=N)N)C(=O)N[C@@H](CCC(=O)O)C(=O)N[C@@H](CCC(N)=O)C(=O)N[C@@H](C)C(=O)N[C@H](C(=O)N[C@H](C(=O)N[C@@H](CC(N)=O)C(=O)N[C@@H](C)C(=O)N[C@@H](CCCNC(=N)N)C(=O)N[C@H](C(=O)N[C@@H](CC(C)C)C(=O)N[C@@H](C)C(=O)N[C@@H](CCCNC(=N)N)C(=O)N[C@H](C(N)=O)C(C)C)[C@@H](C)CC)[C@@H](C)O)[C@@H](C)O)[C@@H](C)CC)[C@@H](C)CC)C(C)C)C(C)C", "note": "[compound 122] (H-IVLSLDVPIGLLQILLEQARAEAAREQATTNARILARV-NH2; N-terminus assumed)", "values": [{"measurement": "Emax", "setting": "[1]", "result": 97, "unit": "%"}, {"measurement": "Emax", "setting": "[2]", "result": 10.7, "unit": "%"}]}
{"smiles": "CC[C@H](C)[C@H](N)C(=O)N[C@H](C(=O)N[C@@H](CC(C)C)C(=O)N[C@@H](CO)C(=O)N[C@@H](CC(C)C)C(=O)N[C@@H](CC(=O)O)C(=O)N[C@H](C(=O)N1CCC[C@H]1C(=O)N[C@H](C(=O)NCC(=O)N[C@@H](CC(C)C)C(=O)N[C@@H](CC(C)C)C(=O)N[C@@H](CCC(N)=O)C(=O)N[C@H](C(=O)N[C@@H](CC(C)C)C(=O)N[C@@H](CC(C)C)C(=O)N[C@@H](CCC(=O)O)C(=O)N[C@@H](CCC(N)=O)C(=O)N[C@@H](CCCNC(=N)N)C(=O)N[C@@H](C)C(=O)N[C@@H](C)C(=O)N[C@@H](CCCNC(=N)N)C(=O)N[C@@H](CCC(=O)O)C(=O)N[C@@H](CCC(N)=O)C(=O)N[C@@H](C)C(=O)N[C@H](C(=O)N[C@H](C(=O)N[C@@H](CC(N)=O)C(=O)N[C@@H](C)C(=O)N[C@@H](CCCNC(=N)N)C(=O)N[C@H](C(=O)N[C@@H](CC(C)C)C(=O)N[C@@H](C)C(=O)N[C@@H](CCCNC(=N)N)C(=O)N[C@H](C(N)=O)C(C)C)[C@@H](C)CC)[C@@H](C)O)[C@@H](C)O)[C@@H](C)CC)[C@@H](C)CC)C(C)C)C(C)C", "note": "[compound 136] (H-IVLSLDVPIGLLQILLEQRAAREQATTNARILARV-NH2; N-terminus assumed)", "values": [{"measurement": "EC50", "setting": "[1]; read-out: CRF2R EC50", "result": 23.4, "unit": "nM"}, {"measurement": "Emax", "setting": "[1]", "result": 68, "unit": "%"}, {"measurement": "EC50", "setting": "[2]; read-out: CRF1R EC50", "result": "> 100", "unit": "nM"}, {"measurement": "Emax", "setting": "[2]", "result": 8, "unit": "%"}]}
{"smiles": "CC[C@H](C)[C@H](NC(=O)[C@H](CCC(N)=O)NC(=O)[C@H](C)NC(=O)[C@H](CC(N)=O)NC(=O)[C@H](CCC(N)=O)NC(=O)[C@H](CCC(=O)O)NC(=O)[C@H](C)NC(=O)[C@H](CCCNC(=N)N)NC(=O)[C@H](CCC(=O)O)NC(=O)[C@H](CCCNC(=N)N)NC(=O)[C@H](CCC(N)=O)NC(=O)[C@H](CO)NC(=O)[C@H](CCC(N)=O)NC(=O)[C@@H](NC(=O)[C@H](CCCCN)NC(=O)[C@H](CCC(=O)O)NC(=O)[C@H](CC(C)C)NC(=O)[C@H](CCC(=O)O)NC(=O)[C@H](CC(C)C)NC(=O)[C@H](CC(C)C)NC(=O)[C@@H](NC(=O)[C@H](CCCNC(=N)N)NC(=O)[C@H](CC(C)C)NC(=O)[C@H](CC(C)C)NC(=O)[C@H](CC(C)C)NC(=O)[C@H](CC(C)C)NC(=O)[C@@H]1CCCN1C(=O)[C@H](CC(C)C)NC(=O)[C@H](CC(=O)O)NC(=O)[C@@H](NC(=O)[C@H](CO)NC(=O)[C@H](CC(C)C)NC(=O)[C@H](CO)NC(=O)[C@@H]1CCCN1C(=O)[C@H](CC(N)=O)NC(=O)[C@@H](N)CC(=O)O)[C@@H](C)CC)[C@@H](C)O)[C@@H](C)O)C(=O)N[C@@H](Cc1ccccc1)C(=O)N[C@@H](C)C(=O)N[C@@H](CCC(N)=O)C(=O)N[C@H](C(N)=O)C(C)C", "note": "[compound 327] (H-DNPSLSIDLPLLLLRTLLELEKTQSQRERAEQNAQIFAQV-NH2; N-terminus assumed)", "values": [{"measurement": "Emax", "setting": "[1]", "result": 100, "unit": "%"}, {"measurement": "Emax", "setting": "[2]", "result": 36.5, "unit": "%"}]}
{"smiles": "CC[C@H](C)[C@H](N)C(=O)N[C@H](C(=O)N[C@@H](CC(C)C)C(=O)N[C@@H](CO)C(=O)N[C@@H](CC(C)C)C(=O)N[C@@H](CC(=O)O)C(=O)N[C@H](C(=O)N1CCC[C@H]1C(=O)N[C@H](C(=O)NCC(=O)N[C@@H](CC(C)C)C(=O)N[C@@H](CC(C)C)C(=O)N[C@@H](CCC(N)=O)C(=O)N[C@H](C(=O)N[C@@H](CC(C)C)C(=O)N[C@H](C(=O)N[C@@H](CCC(=O)O)C(=O)N[C@H](C(=O)N[C@@H](CCC(=O)O)C(=O)N[C@@H](CCCCN)C(=O)N[C@@H](CCC(N)=O)C(=O)N[C@@H](CCC(=O)O)C(=O)N[C@@H](CCCCN)C(=O)N[C@@H](CCC(=O)O)C(=O)N[C@@H](CCCCN)C(=O)N[C@@H](CCC(N)=O)C(=O)N[C@@H](CCC(N)=O)C(=O)N[C@@H](C)C(=O)N[C@@H](C)C(=O)N[C@@H](CC(N)=O)C(=O)N[C@@H](CC(N)=O)C(=O)N[C@@H](C)C(=O)N[C@@H](CCCNC(=N)N)C(=O)N[C@H](C(=O)N[C@@H](CC(C)C)C(=O)N[C@@H](C)C(=O)N[C@@H](CCCNC(=N)N)C(=O)N[C@H](C(N)=O)C(C)C)[C@@H](C)CC)[C@@H](C)CC)[C@@H](C)CC)[C@@H](C)CC)[C@@H](C)CC)C(C)C)C(C)C", "note": "[compound 166] (H-IVLSLDVPIGLLQILIEIEKQEKEKQQAANNARILARV-NH2; N-terminus assumed)", "values": [{"measurement": "EC50", "setting": "[1]", "result": 3.7, "unit": "nM"}, {"measurement": "Emax", "setting": "[1]", "result": 99, "unit": "%"}, {"measurement": "EC50", "setting": "[2]; CRF1R EC50", "result": 437, "unit": "nM"}, {"measurement": "Emax", "setting": "[2]", "result": 95, "unit": "%"}]}
{"smiles": "CC[C@H](C)[C@H](N)C(=O)N[C@H](C(=O)N[C@@H](CC(C)C)C(=O)N[C@@H](CO)C(=O)N[C@@H](CC(C)C)C(=O)N[C@@H](CC(=O)O)C(=O)N[C@H](C(=O)N1CCC[C@H]1C(=O)N[C@H](C(=O)NCC(=O)N[C@@H](CC(C)C)C(=O)N[C@@H](CC(C)C)C(=O)N[C@@H](CCC(N)=O)C(=O)N[C@H](C(=O)N[C@@H](CC(C)C)C(=O)N[C@@H](CC(C)C)C(=O)N[C@@H](CCC(=O)O)C(=O)N[C@@H](CCC(N)=O)C(=O)N[C@H](C(=O)N[C@@H](CCCCN)C(=O)N[C@@H](C)C(=O)N[C@@H](CC(=O)O)C(=O)N[C@@H](C)C(=O)N[C@@H](C)C(=O)N[C@@H](CCCNC(=N)N)C(=O)N[C@@H](CCC(=O)O)C(=O)N[C@@H](CCC(N)=O)C(=O)N[C@@H](C)C(=O)N[C@H](C(=O)N[C@H](C(=O)N[C@@H](CC(N)=O)C(=O)N[C@@H](C)C(=O)N[C@@H](CCCNC(=N)N)C(=O)N[C@H](C(=O)N[C@@H](CC(C)C)C(=O)N[C@@H](C)C(=O)N[C@@H](CCCNC(=N)N)C(=O)N[C@H](C(N)=O)C(C)C)[C@@H](C)CC)[C@@H](C)O)[C@@H](C)O)[C@@H](C)O)[C@@H](C)CC)[C@@H](C)CC)C(C)C)C(C)C", "note": "[compound 108] (H-IVLSLDVPIGLLQILLEQTKADAAREQATTNARILARV-NH2; N-terminus assumed)", "values": [{"measurement": "Emax", "setting": "[1]", "result": 97, "unit": "%"}, {"measurement": "Emax", "setting": "[2]", "result": 3, "unit": "%"}]}
